# According to ChEMBL document CHEMBL1671736, “In vivo efficacy of anidulafungin against mature Candida albicans biofilms in a novel rat model of catheter-associated Candidiasis” (2010):
# Active and inactive are the calls of the source. The rule behind the calls is not given here. *1 amine or outer side, *2 acyl side, *3 side chain or, on linkers, in order; H or OH if unused. Where a SMILES comes first, the peptide text is derived from it. Bridges are numbered along the chain shown (N, C = ends). [ ]: non-standard residue; d: D form. The star is where a group is joined. pTerphenylCO(4''-OnC5H11) = CCCCCOc1ccc(-c2ccc(-c3ccc(C(=O)*)cc3)cc2)cc1; Orn(4R-OH,5R-OH) = O=C([C@H](C[C@@H](O)[C@@H](O)N[*:3])N[*:1])[*:2]; hTyr(3S-OH,4S-OH) = N[C@H](C(=O)O)[C@H](O)[C@@H](O)c1ccc(O)cc1; Pro(3S-OH,4S-Me) = C[C@H]1CN[C@H](C(=O)O)[C@H]1O; Hyp = O=C(O)[C@@H]1C[C@@H](O)CN1
# Columns and labels:
# [1] = system: Candida albicans; assay: Antimicrobial activity against Candida albicans SC5314 biofilms infected in Sprague-Dawley rat implanted subcutaneously with catheter fragments challenged Candida cells assessed as […] at 10 mg/kg, ip qd for 7 days (Rvb=2.92 +/- 0.34 log10 CFU/catheter fragment); format: functional
# [2] = system: Candida albicans; assay: Antimicrobial activity against Candida albicans SC5314 assessed as reduction of biofilm metabolic activity in in vitro catheter-associated rat model by XTT assay; format: functional
# [3] = system: Candida albicans; assay: Antimicrobial activity against Candida albicans SC5314 assessed as reduction of biofilm metabolic activity in in vitro catheter-associated rat model at 64 ug/ml by XTT assay; format: functional, organism-based
# [4] = system: Candida albicans; assay: Antimicrobial activity against Candida albicans SC5314 biofilms infected in Sprague-Dawley rat implanted subcutaneously with catheter fragments challenged Candida cells assessed as […] at 125 mg/kg, ip qd for 7 days (Rvb=2.92 +/- 0.34 log10 CFU/catheter fragment); format: functional
Compound,log10cfu [1],MIC [2],Activity [3],log10cfu [4]
"CCCCCOc1ccc(-c2ccc(-c3ccc(C(=O)N[C@H]4C[C@@H](O)[C@@H](O)NC(=O)[C@@H]5[C@@H](O)[C@@H](C)CN5C(=O)[C@H]([C@@H](C)O)NC(=O)[C@H]([C@H](O)[C@@H](O)c5ccc(O)cc5)NC(=O)[C@@H]5C[C@@H](O)CN5C(=O)[C@H]([C@@H](C)O)NC4=O)cc3)cc2)cc1 [ANIDULAFUNGIN] ({pTerphenylCO(4''-OnC5H11)}-[Orn(4R-OH,5R-OH)]T[Hyp][hTyr(3S-OH,4S-OH)]T[Pro(3S-OH,4S-Me)]; lactam 1-C)",2.14,0.25 µg/mL,–,–
OC(Cn1cncn1)(Cn1cncn1)c1ccc(F)cc1F [FLUCONAZOLE],–,–,inactive,3.01
